Experimental data from patent publication US11254661B2, “Quinoline derivatives for treating infections with helminths” (Bayer Animal Health GMBH, priority 2017, dated 2022).

Columns and labels:
C. elegans Slo-1a = C. elegans Slo-1a (Caenorhabditis elegans, UniProt Q95V25)
Experimental: In Vitro Assay 1: C. elegans Slo-1a—Action at a Recombinant C. elegans Cell Line
Cells were cultured at 37° C. and 5% CO2 in MEMalpha with Gutamax I (Invitrogen, Nr.: 32571), supplemented with 10% (v/v) heat inactivated fetal bovine serum (Invitrogen, Nr.: 10500), G418 (1 mg/ml, Invitrogen, Nr.: 10131). Cells were detached using Accutase (Sigma, Nr.: A6964).
Membrane Potential Measurements
Laboratory compound testing was performed on 384-well microtiter plates (MTPs, Greiner, Nr.: 781092). 8000 cells/well were plated onto 384-well MTPs and cultured for 20 to 24 hours at 37° C. and 5% CO2. After removal of the cell culture medium, the cells were washed once with tyrode (150 mM NaCl, 0.3 mM KCl, 2 mM CaCl2, 1 mM MgCl2, 0.8 mM NaH2PO4, 5 mM Glucose, 28 mM Hepes, pH 7.4) and then loaded with the voltage sensitive dye of the Membrane Potential Assay Kit diluted in tyrode for 1 h at room temperature.
After starting the measurement of fluorescence using a FLIPR Tetra(Molecular Devices, Exc. 510-545 nm, Emm. 565-625 nm), test compounds were added followed by the addition of KCl tyrode (final assay concentration: 70 mM KCl, 2 mM CaCl2, 1 mM MgCl2, 0.8 mM NaH2PO4, 5 mM Glucose, 28 mM Hepes, pH 7.4, including the voltage sensitive dye). The measurement was completed after 7 minutes.

[1] = system: Dirofilaria immitis third-stage larvae; test: In Vitro Assay 3: Dirofilaria immitis (DIROIM L4) larval motility; settings: 72 h
[2] = system: Dirofilaria immitis microfilariae; test: In Vitro Assay 2: Dirofilaria immitis microfilariae (DIROIM L1) motility; settings: 72 h

Chain of C. elegans Slo-1a (Q95V25 whole entry): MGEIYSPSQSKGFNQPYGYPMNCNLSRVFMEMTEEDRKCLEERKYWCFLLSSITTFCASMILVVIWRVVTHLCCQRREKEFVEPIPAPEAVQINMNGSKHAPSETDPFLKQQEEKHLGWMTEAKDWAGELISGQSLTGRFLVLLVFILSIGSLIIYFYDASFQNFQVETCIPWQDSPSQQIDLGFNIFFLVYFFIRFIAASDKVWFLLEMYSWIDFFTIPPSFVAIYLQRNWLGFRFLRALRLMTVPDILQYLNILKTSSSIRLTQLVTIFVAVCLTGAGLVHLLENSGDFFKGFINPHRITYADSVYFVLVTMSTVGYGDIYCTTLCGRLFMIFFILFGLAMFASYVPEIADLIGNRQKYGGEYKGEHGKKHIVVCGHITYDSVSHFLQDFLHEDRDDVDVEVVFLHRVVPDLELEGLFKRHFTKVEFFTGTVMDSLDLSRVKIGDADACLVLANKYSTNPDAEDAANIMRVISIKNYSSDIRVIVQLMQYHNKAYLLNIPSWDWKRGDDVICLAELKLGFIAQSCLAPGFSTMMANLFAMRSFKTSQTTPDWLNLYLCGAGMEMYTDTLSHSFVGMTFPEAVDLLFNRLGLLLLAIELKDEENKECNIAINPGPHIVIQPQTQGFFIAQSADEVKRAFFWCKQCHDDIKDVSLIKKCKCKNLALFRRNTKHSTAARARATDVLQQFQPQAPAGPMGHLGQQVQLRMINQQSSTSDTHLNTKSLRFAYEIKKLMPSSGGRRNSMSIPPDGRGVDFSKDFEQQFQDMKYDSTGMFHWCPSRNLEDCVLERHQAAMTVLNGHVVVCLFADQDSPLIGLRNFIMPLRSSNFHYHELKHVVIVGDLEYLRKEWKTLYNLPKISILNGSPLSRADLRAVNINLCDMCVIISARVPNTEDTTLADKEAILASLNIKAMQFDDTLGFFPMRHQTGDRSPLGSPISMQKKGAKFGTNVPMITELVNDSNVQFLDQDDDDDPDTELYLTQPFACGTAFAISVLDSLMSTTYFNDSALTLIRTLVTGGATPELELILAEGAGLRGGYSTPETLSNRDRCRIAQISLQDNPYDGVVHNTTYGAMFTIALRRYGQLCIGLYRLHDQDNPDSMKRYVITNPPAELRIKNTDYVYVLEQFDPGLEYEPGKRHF

Row | SMILES | EC50 (C. elegans Slo-1a) [nM] | EC50 [1] [µg/mL] | EC50 [2] [µg/mL]
1 | CN(C)c1c(C(=O)N[C@H]2CCOc3ccccc32)cnc2c(C3CCCCCC3)cccc12 [Example 15, (S)—N-(Chroman-4-yl)-8-cycloheptyl-4-(dimethylamino)quinoline-3-carboxamide] | 3.16 to 31.6 | < 0.1 | < 0.1
2 | CN(C)c1c(C(=O)N[C@H]2CCOc3ccccc32)cnc2c(C3=CCC(C)(C)CC3)cccc12 [Example 18, (S)—N-(Chroman-4-yl)-4-(dimethylamino)-8-(4,4-dimethylcyclohex-1-en-1-yl)quinoline-3-carboxamide] | 31.6 to 316 | < 1 | < 10
3 | CC(C)CC(C)c1cccc2c(N3CCOCC3)c(C(=O)N[C@H]3CCOc4ccccc43)cnc12 (stereo partly drawn) [Example 22, N-[(4S)-3,4-dihydro-2H-chromen-4-yl]-8-(4-methylpentan-2-yl)-4-(morpholin-4-yl)quinoline-3-carboxamide] | 3.16 to 31.6 | < 0.1 | < 0.1
4 | C[C@@H]1C[C@H](C)CN(c2cccc3c(N4CCOCC4)c(C(=O)N[C@H]4CCOc5ccccc54)cnc23)C1 [Example 33, N-[(4S)-3,4-dihydro-2H-chromen-4-yl]-8-[(3R,5S)-3,5-dimethylpiperidin-1-yl]-4-(morpholin-4-yl)quinoline-3-carboxamide] | < 3.16 | < 0.1 | < 0.1
5 | C[C@@H]1C[C@H](C)CN(c2cccc3c(N(C)C)c(C(=O)N[C@H]4CCOc5ccccc54)cnc23)C1 [Example 34, N-[(4S)-3,4-dihydro-2H-chromen-4-yl]-4-(dimethylamino)-8-[(3R,5S)-3,5-dimethylpiperidin-1-yl]quinoline-3-carboxamide] | < 3.16 | < 0.1 | < 1
6 | CC(C)c1c(C(=O)N[C@H]2CCOc3ccccc32)cnc2c(N3CCCCC3)c(F)ccc12 [Example 37, N-[(4S)-3,4-dihydro-2H-chromen-4-yl]-7-fluoro-8-(piperidin-1-yl)-4-(propan-2-yl)quinoline-3-carboxamide] | 3.16 to 31.6 | < 0.1 | < 0.1
7 | CC(C)c1c(C(=O)N[C@H]2CCOc3ccccc32)cnc2c(N3C[C@H](C)C[C@H](C)C3)c(F)ccc12 [Example 38, N-[(4S)-3,4-dihydro-2H-chromen-4-yl]-8-[(3R,5S)-3,5-dimethylpiperidin-1-yl]-7-fluoro-4-(propan-2-yl)quinoline-3-carboxamide] | < 3.16 | < 0.1 | < 0.1
8 | O=C(N[C@H]1CCc2ccccc21)c1cnc2c(N3CCC(F)(F)CC3)c(F)ccc2c1N1CCOCC1 [Example 40, 8-(4,4-difluoropiperidin-1-yl)-N-[(1S)-2,3-dihydro-1H-inden-1-yl]-7-fluoro-4-(morpholin-4-yl)quinoline-3-carboxamide] | 3.16 to 31.6 | < 0.1 | < 0.1
9 | CN(C)c1c(C(=O)N[C@H]2CCc3ccccc32)cnc2c(N3CCCC3)c(F)ccc12 [Example 42, N-[(1S)-2,3-dihydro-1H-inden-1-yl]-4-(dimethylamino)-7-fluoro-8-(pyrrolidin-1-yl)quinoline-3-carboxamide] | 31.6 to 316 |  | < 10
10 | O=C(N[C@H]1CCc2ccccc21)c1cnc2c(N3CCCCC3)c(F)ccc2c1N1CCOCC1 [Example 43, N-[(1S)-2,3-dihydro-1H-inden-1-yl]-7-fluoro-4-(morpholin-4-yl)-8-(piperidin-1-yl)quinoline-3-carboxamide] | 3.16 to 31.6 | < 0.1 | < 0.1
11 | CN(C)c1c(C(=O)N[C@H]2CCc3ccccc32)cnc2c(N3CCCCC3)c(F)ccc12 [Example 44, N-[(1S)-2,3-dihydro-1H-inden-1-yl]-4-(dimethylamino)-7-fluoro-8-(piperidin-1-yl)quinoline-3-carboxamide] | 3.16 to 31.6 |  | < 1
12 | O=C(N[C@H]1CCc2ccccc21)c1cnc2c(N3CCOCC3)c(F)ccc2c1N1CCOCC1 [Example 45, N-[(1S)-2,3-dihydro-1H-inden-1-yl]-7-fluoro-4,8-di(morpholin-4-yl)quinoline-3-carboxamide] | 31.6 to 316 |  | < 1
13 | CN(C)c1c(C(=O)N[C@H]2CCc3ccccc32)cnc2c(N3CCS(=O)(=O)CC3)c(F)ccc12 [Example 46, N-[(1S)-2,3-dihydro-1H-inden-1-yl]-4-(dimethylamino)-8-(1,1-dioxidothiomorpholin-4-yl)-7-fluoroquinoline-3-carboxamide] | 316 to 5010 |  | < 10
14 | CN(C)c1c(C(=O)N[C@H]2CCc3ccccc32)cnc2c(N3CCOCC3)c(F)ccc12 [Example 47, N-[(1S)-2,3-dihydro-1H-inden-1-yl]-4-(dimethylamino)-7-fluoro-8-(morpholin-4-yl)quinoline-3-carboxamide] | 316 to 5010 |  | < 10
15 | O=C(N[C@H]1CCc2ccccc21)c1cnc2c(N3CCCC3)c(F)ccc2c1N1CCOCC1 [Example 48, N-[(1S)-2,3-dihydro-1H-inden-1-yl]-7-fluoro-4-(morpholin-4-yl)-8-(pyrrolidin-1-yl)quinoline-3-carboxamide] | 3.16 to 31.6 |  | < 1
16 | CC1CC(C)CN(c2c(F)ccc3c(N4CCOCC4)c(C(=O)N[C@H]4CCc5ccccc54)cnc23)C1 (stereo partly drawn) [Example 49, N-[(1S)-2,3-dihydro-1H-inden-1-yl]-8-(3,5-dimethylpiperidin-1-yl)-7-fluoro-4-(morpholin-4-yl)quinoline-3-carboxamide] | < 3.16 | < 0.1 | < 0.1
